ChEMBL document CHEMBL4052831, “The Discovery of N-(1-Methyl-5-(trifluoromethyl)-1H-pyrazol-3-yl)-5-((6- ((methylamino)methyl)pyrimidin-4-yl)oxy)-1H-indole-1-carboxamide (Acrizanib), a VEGFR-2 Inhibitor Specifically Designed for Topical Ocular Delivery, as a Therapy for Neovascular Age-Related Macular Degeneration” (J Med Chem, 2018)
≈ marks a conversion by molar mass, not a printed value. Calls of active or inactive are those of the source. The rule behind the calls is not given here.

Legend:
[1] = Intrinsic clearance in rat liver microsomes at 1 uM after 5 to 30 mins by LC-MS/MS analysis; type: ADME, microsome; conditions: read-out: CLH
[2] = test system: Mus musculus; experiment: Antiangiogenic activity in C57BL/6 mouse laser-induced choroidal neovascularization model assessed as inhibition of neovascularization administered 1% suspension using 3.5 uL topical drop to both eyes every 3 hrs for 9 hrs by microscopic analysis
[3] = target: Tyrosine-protein kinase ABL1 (Homo sapiens, UniProt P00519); experiment: Inhibition of human ABL
[4] = test system: Cynomolgus monkey; experiment: Toxicity in cynomolgus monkey adnexa region of eye administered 0.5% suspension using 30 uL topical drop to both eyes every 3 hrs for 9 hrs over 5 days by slit lamp biomicroscopic method; parameters: species or system Macaca fascicularis; conditions: in vivo, topical_or_ocular
[5] = test system: Cynomolgus monkey; experiment: Toxicity in cynomolgus monkey anterior region of eye administered 0.5% suspension using 30 uL topical drop to both eyes every 3 hrs for 9 hrs over 5 days by slit lamp biomicroscopic method; parameters: species or system Macaca fascicularis; conditions: in vivo, topical_or_ocular
[6] = Cmax in posterior eye cup of Brown Norway rat administered 0.3% suspension using 4 uL topical drop to both eyes as single dose by LC-MS/MS analysis; type: ADME; conditions: topical or ocular, 4 uL of 0.3% suspension per eye
[7] = Cmax in plasma of Brown Norway rat administered 0.3% suspension using 4 uL topical drop to both eyes every 3 hrs for 9 hrs over 10 days and single drop to each eye on day 11 by LC-MS/MS analysis; type: ADME; conditions: topical or ocular, 4 uL of 0.3% suspension per eye
[8] = target: Mast/stem cell growth factor receptor Kit (Homo sapiens, UniProt P10721); experiment: Inhibition of human KIT
[9] = AUC (0 to last) in posterior eye cup of Brown Norway rat administered 0.3% suspension using 4 uL topical drop to both eyes as single dose by LC-MS/MS analysis; type: ADME; conditions: topical or ocular, 4 uL of 0.3% suspension per eye
[10] = Tmax in cynomolgus monkey plasma administered 0.5% suspension using 30 uL topical drop to both eyes as single dose by LC-MS/MS analysis; type: ADME, Macaca fascicularis; conditions: topical or ocular, 30 uL of 0.5% suspension per eye
[11] = test system: Cynomolgus monkey; experiment: Toxicity in cynomolgus monkey ocular fundus administered 0.5% suspension using 30 uL topical drop to both eyes every 3 hrs for 9 hrs over 5 days by indirect ophthalmoscopic method; parameters: species or system Macaca fascicularis; conditions: in vivo, topical_or_ocular
[12] = Plasma concentration in cynomolgus monkey administered 0.5% suspension using 30 uL topical drop to both eyes as single dose measured over 24 hrs by LC-MS/MS analysis; type: ADME, cell-free, Macaca fascicularis; conditions: topical or ocular, 30 uL of 0.5% suspension per eye
[13] = test system: Rattus norvegicus; experiment: Antiangiogenic activity in Brown Norway rat laser-induced choroidal neovascularization model assessed as inhibition of neovascularization administered 0.09% suspension using 4 uL topical drop to both eyes every 3 hrs for 9 hrs by microscopic analysis; type: functional
[14] = AUC (0 to last) in plasma of Brown Norway rat administered 0.3% suspension using 4 uL topical drop to both eyes as single dose by LC-MS/MS analysis; type: ADME; parameters: dose 4 uL, time 0 - last, route ophthalmic; conditions: topical or ocular, 4 uL of 0.3% suspension per eye
[15] = AUC (0 to last) in retina of Brown Norway rat administered 0.3% suspension using 4 uL topical drop to both eyes every 3 hrs for 9 hrs over 10 days and single drop to each eye on day 11 by LC-MS/MS analysis; type: ADME; conditions: topical or ocular, 4 uL of 0.3% suspension per eye
[16] = Cmax in retina of Brown Norway rat administered 0.3% suspension using 4 uL topical drop to both eyes as single dose by LC-MS/MS analysis; type: ADME, tissue-based; parameters: dose 4 uL, route ophthalmic; conditions: topical or ocular, 4 uL of 0.3% suspension per eye
[17] = AUC (0 to last) in plasma of Brown Norway rat administered 0.3% suspension using 4 uL topical drop to both eyes every 3 hrs for 9 hrs over 10 days and single drop to each eye on day 11 by LC-MS/MS analysis; type: ADME; conditions: topical or ocular, 4 uL of 0.3% suspension per eye
[18] = Cmax in cynomolgus monkey plasma administered 0.5% suspension using 30 uL topical drop to both eyes every 3 hrs for 9 hrs over 5 days and single drop to each eye on day 6 by LC-MS/MS analysis; type: ADME, Macaca fascicularis; conditions: topical or ocular, 30 uL of 0.5% suspension per eye
[19] = Cmax in posterior eye cup of Brown Norway rat administered 0.3% suspension using 4 uL topical drop to both eyes every 3 hrs for 9 hrs over 10 days and single drop to each eye on day 11 by LC-MS/MS analysis; type: ADME; conditions: topical or ocular, 4 uL of 0.3% suspension per eye
[20] = test system: Rattus norvegicus; experiment: Antiangiogenic activity in Brown Norway rat laser-induced choroidal neovascularization model assessed as inhibition of neovascularization administered 0.1% solution to both eyes every 3 hrs for 9 hrs by microscopic analysis; type: functional
[21] = Cmax in retina of Brown Norway rat administered 0.3% suspension using 4 uL topical drop to both eyes every 3 hrs for 9 hrs over 10 days and single drop to each eye on day 11 by LC-MS/MS analysis; type: ADME; conditions: topical or ocular, 4 uL of 0.3% suspension per eye
[22] = Tmax in cynomolgus monkey plasma administered 0.5% suspension using 30 uL topical drop to both eyes every 3 hrs for 9 hrs over 5 days and single drop to each eye on day 6 by LC-MS/MS analysis; type: ADME, Macaca fascicularis; conditions: topical or ocular, 30 uL of 0.5% suspension per eye
[23] = Solubility of compound at pH 7.4; type: physicochemical; conditions: buffer
[24] = AUC (0 to last) in retina of Brown Norway rat administered 0.3% suspension using 4 uL topical drop to both eyes as single dose by LC-MS/MS analysis; type: ADME, tissue-based; parameters: dose 4 uL, time 0 - last, route ophthalmic; conditions: topical or ocular, 4 uL of 0.3% suspension per eye
[25] = Cmax in plasma of Brown Norway rat administered 0.3% suspension using 4 uL topical drop to both eyes as single dose by LC-MS/MS analysis; type: ADME; parameters: dose 4 uL, route ophthalmic; conditions: topical or ocular, 4 uL of 0.3% suspension per eye
[26] = Cmax in cynomolgus monkey plasma administered 0.5% suspension using 30 uL topical drop to both eyes as single dose by LC-MS/MS analysis; type: ADME, Macaca fascicularis; parameters: dose 30 uL, route ophthalmic; conditions: topical or ocular, 30 uL of 0.5% suspension per eye
[27] = AUC (0 to last) in cynomolgus monkey plasma administered 0.5% suspension using 30 uL topical drop to both eyes as single dose by LC-MS/MS analysis; type: ADME, Macaca fascicularis; parameters: dose 30 uL, route ophthalmic, time 0 - last; conditions: topical or ocular, 30 uL of 0.5% suspension per eye
[28] = target: Platelet-derived growth factor receptor alpha (Homo sapiens, UniProt P16234); experiment: Inhibition of human PDGFRalpha
[29] = AUC (0 to last) in posterior eye cup of Brown Norway rat administered 0.3% suspension using 4 uL topical drop to both eyes every 3 hrs for 9 hrs over 10 days and single drop to each eye on day 11 by LC-MS/MS analysis; type: ADME; conditions: topical or ocular, 4 uL of 0.3% suspension per eye
[30] = AUC (0 to last) in cynomolgus monkey plasma administered 0.5% suspension using 30 uL topical drop to both eyes every 3 hrs for 9 hrs over 5 days and single drop to each eye on day 6 by LC-MS/MS analysis; type: ADME, Macaca fascicularis; conditions: topical or ocular, 30 uL of 0.5% suspension per eye
[31] = target: Proto-oncogene tyrosine-protein kinase receptor Ret (Homo sapiens, UniProt P07949); experiment: Inhibition of human RET
[32] = test system: Plasma; experiment: Plasma concentration in cynomolgus monkey administered 0.5% suspension using 30 uL topical drop to both eyes every 3 hrs for 9 hrs over 5 days and single drop to each eye on day 6 by LC-MS/MS analysis; type: ADME, cell-free, Macaca fascicularis; conditions: topical_or_ocular
[33] = target: Tyrosine-protein kinase Lyn (Homo sapiens, UniProt P07948); experiment: Inhibition of human LYN
[34] = Tmax in cynomolgus monkey plasma administered 1% solution using 30 uL topical drop to both eyes as single dose by LC-MS/MS analysis; type: ADME, Macaca fascicularis; conditions: topical or ocular, 30 uL of 1% solution per eye
[35] = test system: Rattus norvegicus; experiment: Antiangiogenic activity in Brown Norway rat laser-induced choroidal neovascularization model assessed as inhibition of neovascularization administered both eyes every 3 hrs for 9 hrs by microscopic analysis; type: functional
[36] = Cmax in cynomolgus monkey plasma administered 1% suspension using 30 uL topical drop to both eyes as single dose by LC-MS/MS analysis; type: ADME, Macaca fascicularis; parameters: dose 30 uL, route ophthalmic; conditions: topical or ocular, 30 uL of 1% suspension per eye
[37] = AUC (0 to 6 hrs) in cynomolgus monkey plasma administered 1% solution using 30 uL topical drop to both eyes as single dose by LC-MS/MS analysis; type: ADME, Macaca fascicularis; parameters: time < 6 hr, dose 30 uL, route ophthalmic; conditions: topical or ocular, 30 uL of 1% solution per eye
[38] = test system: Rattus norvegicus; experiment: Antiangiogenic activity in Brown Norway rat laser-induced choroidal neovascularization model assessed as inhibition of neovascularization administered both eyes every 4.5 hrs for 9 hrs by microscopic analysis; type: functional
[39] = Tmax in cynomolgus monkey plasma administered 1% suspension using 30 uL topical drop to both eyes as single dose by LC-MS/MS analysis; type: ADME, Macaca fascicularis; conditions: topical or ocular, 30 uL of 1% suspension per eye
[40] = test system: Rattus norvegicus; experiment: Antiangiogenic activity in Brown Norway rat laser-induced choroidal neovascularization model assessed as inhibition of neovascularization administered 3% suspension using 4 uL topical drop to both eyes every 4.5 hrs for 9 hrs by microscopic analysis; type: functional
[41] = Half life in cynomolgus monkey plasma administered 1% solution using 30 uL topical drop to both eyes as single dose by LC-MS/MS analysis; type: ADME, Macaca fascicularis; conditions: topical or ocular, 30 uL of 1% solution per eye
[42] = test system: Rattus norvegicus; experiment: Antiangiogenic activity in Brown Norway rat laser-induced choroidal neovascularization model assessed as inhibition of neovascularization administered topical drop to both eyes as qd by microscopic analysis; type: functional
[43] = Half life in cynomolgus monkey plasma administered 1% suspension using 30 uL topical drop to both eyes as single dose by LC-MS/MS analysis; type: ADME, Macaca fascicularis; conditions: topical or ocular, 30 uL of 1% suspension per eye
[44] = Cmax in cynomolgus monkey plasma administered 1% solution using 30 uL topical drop to both eyes as single dose by LC-MS/MS analysis; type: ADME, Macaca fascicularis; parameters: dose 30 uL, route ophthalmic; conditions: topical or ocular, 30 uL of 1% solution per eye
[45] = AUC (0 to 6 hrs) in cynomolgus monkey plasma administered 1% suspension using 30 uL topical drop to both eyes as single dose by LC-MS/MS analysis; type: ADME, Macaca fascicularis; parameters: time < 6 hr, dose 30 uL, route ophthalmic; conditions: topical or ocular, 30 uL of 1% suspension per eye

Tyrosine-protein kinase ABL1, sequence (P00519 whole entry): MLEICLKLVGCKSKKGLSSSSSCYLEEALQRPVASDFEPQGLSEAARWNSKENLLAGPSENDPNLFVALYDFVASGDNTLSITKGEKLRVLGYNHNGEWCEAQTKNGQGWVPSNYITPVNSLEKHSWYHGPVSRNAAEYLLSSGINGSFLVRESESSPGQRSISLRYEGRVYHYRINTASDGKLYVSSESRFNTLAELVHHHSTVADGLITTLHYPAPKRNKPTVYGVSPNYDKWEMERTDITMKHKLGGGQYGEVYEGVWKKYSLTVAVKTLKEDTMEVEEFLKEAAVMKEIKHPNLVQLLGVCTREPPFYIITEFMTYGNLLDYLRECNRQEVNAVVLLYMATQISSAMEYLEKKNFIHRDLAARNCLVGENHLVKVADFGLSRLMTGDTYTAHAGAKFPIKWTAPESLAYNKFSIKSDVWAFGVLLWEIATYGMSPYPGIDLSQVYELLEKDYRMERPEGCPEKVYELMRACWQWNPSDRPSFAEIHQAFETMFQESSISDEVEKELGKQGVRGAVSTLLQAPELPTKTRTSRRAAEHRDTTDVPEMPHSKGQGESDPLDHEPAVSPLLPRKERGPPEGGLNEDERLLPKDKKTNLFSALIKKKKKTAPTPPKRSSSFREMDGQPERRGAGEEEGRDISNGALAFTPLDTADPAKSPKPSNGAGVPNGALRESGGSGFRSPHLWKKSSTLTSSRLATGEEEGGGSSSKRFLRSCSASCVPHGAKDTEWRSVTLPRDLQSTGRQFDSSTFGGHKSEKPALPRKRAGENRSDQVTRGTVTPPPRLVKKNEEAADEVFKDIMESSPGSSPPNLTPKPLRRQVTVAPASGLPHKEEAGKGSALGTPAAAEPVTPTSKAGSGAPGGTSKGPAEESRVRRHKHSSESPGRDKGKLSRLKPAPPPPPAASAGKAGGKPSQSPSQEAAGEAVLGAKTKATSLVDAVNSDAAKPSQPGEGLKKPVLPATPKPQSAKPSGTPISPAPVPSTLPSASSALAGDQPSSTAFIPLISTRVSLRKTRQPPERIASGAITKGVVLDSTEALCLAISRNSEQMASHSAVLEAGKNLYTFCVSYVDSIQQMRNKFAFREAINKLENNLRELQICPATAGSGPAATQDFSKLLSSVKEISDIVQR
Tyrosine-protein kinase Lyn, sequence (P07948 whole entry): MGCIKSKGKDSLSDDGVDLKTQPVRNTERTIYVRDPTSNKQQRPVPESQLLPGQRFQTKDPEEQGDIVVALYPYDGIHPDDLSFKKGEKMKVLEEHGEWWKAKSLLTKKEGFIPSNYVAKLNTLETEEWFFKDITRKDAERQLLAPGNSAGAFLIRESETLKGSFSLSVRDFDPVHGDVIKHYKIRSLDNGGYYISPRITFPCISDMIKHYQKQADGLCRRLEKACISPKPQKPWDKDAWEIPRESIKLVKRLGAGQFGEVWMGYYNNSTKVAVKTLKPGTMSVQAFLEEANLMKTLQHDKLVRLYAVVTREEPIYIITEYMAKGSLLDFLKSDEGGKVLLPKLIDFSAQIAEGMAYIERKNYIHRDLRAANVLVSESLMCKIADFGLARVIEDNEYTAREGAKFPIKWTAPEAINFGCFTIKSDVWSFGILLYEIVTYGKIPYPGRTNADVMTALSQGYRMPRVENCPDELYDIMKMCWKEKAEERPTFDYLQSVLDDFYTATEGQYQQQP
Mast/stem cell growth factor receptor Kit, sequence (P10721 whole entry): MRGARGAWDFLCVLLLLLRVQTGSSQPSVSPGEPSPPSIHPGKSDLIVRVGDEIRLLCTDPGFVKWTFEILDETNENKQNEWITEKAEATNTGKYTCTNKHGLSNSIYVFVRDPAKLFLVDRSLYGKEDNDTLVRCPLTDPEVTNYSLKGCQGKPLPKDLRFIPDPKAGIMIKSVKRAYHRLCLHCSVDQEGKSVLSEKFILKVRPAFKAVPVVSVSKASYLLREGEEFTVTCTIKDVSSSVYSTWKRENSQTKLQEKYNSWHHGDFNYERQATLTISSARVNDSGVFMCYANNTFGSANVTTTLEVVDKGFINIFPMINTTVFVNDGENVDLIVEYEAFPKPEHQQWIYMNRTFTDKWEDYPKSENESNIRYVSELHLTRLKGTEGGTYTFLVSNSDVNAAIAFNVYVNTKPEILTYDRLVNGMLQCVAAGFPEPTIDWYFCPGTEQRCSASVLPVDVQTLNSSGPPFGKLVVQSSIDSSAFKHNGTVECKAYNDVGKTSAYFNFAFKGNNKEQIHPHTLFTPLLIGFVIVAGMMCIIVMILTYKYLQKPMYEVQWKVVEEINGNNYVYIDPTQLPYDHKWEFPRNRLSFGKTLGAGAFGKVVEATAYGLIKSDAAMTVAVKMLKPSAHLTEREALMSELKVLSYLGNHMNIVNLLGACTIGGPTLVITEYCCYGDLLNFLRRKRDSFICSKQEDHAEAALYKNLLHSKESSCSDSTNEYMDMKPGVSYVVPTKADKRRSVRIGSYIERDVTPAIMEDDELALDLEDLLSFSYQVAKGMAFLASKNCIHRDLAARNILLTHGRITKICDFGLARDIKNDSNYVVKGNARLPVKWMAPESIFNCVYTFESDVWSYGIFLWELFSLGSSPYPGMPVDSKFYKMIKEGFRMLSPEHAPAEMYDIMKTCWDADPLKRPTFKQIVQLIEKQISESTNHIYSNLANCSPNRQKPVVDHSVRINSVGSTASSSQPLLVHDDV
Proto-oncogene tyrosine-protein kinase receptor Ret, sequence (P07949 whole entry): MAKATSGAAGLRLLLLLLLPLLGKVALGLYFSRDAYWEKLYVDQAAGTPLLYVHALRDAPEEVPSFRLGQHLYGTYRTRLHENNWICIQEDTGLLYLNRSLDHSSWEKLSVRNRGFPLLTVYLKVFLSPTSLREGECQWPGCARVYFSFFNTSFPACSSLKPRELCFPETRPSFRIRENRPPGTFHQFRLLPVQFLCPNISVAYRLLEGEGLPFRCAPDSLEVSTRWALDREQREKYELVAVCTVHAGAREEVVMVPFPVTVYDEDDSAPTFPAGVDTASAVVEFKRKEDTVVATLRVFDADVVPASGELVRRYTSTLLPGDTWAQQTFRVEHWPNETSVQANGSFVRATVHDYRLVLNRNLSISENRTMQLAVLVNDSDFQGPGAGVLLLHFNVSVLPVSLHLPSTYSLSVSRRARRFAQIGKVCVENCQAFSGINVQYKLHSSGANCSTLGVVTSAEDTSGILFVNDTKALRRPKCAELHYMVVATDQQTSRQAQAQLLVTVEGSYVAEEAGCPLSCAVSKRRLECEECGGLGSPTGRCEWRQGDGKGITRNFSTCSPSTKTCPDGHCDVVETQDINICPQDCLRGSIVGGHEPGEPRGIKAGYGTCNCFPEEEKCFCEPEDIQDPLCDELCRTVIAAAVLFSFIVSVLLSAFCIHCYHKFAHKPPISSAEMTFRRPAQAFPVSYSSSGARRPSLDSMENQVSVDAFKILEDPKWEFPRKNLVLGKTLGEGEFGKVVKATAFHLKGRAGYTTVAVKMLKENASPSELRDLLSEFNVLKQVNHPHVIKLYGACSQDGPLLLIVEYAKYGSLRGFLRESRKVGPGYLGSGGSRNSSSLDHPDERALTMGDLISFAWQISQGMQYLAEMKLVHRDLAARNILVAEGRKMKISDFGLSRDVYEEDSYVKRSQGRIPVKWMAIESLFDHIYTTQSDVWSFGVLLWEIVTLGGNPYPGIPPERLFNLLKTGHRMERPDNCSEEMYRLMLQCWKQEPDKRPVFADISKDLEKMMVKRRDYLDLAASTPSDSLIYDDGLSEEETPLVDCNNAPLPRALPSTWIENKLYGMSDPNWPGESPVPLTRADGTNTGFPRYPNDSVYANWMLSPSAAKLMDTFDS
Platelet-derived growth factor receptor alpha, sequence (P16234 whole entry): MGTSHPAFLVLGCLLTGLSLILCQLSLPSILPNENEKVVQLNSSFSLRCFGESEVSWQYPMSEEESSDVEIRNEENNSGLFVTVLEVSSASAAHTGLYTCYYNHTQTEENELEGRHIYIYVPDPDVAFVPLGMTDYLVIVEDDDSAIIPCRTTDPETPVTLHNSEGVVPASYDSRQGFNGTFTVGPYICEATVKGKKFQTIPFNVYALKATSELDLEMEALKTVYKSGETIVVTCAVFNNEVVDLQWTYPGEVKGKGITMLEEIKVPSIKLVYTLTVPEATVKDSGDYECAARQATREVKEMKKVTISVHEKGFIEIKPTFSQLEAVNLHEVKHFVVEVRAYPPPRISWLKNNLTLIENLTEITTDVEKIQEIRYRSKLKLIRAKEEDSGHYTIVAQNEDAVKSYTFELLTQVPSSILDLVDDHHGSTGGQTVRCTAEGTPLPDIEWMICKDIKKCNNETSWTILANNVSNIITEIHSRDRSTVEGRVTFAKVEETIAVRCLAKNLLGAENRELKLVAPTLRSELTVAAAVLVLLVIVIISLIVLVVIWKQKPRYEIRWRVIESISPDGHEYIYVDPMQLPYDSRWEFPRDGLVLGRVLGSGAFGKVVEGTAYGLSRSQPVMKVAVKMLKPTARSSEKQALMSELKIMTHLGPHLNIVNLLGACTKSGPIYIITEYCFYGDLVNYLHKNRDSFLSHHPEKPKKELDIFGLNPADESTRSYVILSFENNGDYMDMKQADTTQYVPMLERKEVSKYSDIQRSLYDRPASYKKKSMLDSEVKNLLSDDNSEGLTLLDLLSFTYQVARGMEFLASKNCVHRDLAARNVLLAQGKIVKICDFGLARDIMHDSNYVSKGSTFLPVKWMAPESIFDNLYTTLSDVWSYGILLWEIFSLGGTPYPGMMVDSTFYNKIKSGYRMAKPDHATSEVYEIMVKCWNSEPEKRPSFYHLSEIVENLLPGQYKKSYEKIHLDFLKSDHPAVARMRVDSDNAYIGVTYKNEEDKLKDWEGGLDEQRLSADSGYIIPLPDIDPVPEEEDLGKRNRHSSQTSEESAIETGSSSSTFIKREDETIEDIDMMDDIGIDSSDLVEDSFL

CNCc1cc(Oc2ccc3c(ccn3C(=O)Nc3cc(C(F)(F)F)[nH]n3)c2)ncn1
microsomal CLint at 1 µM [1]: 131 µL/min/mg

CNCc1cc(Oc2ccc3c(ccn3C(=O)Nc3cc(C(C)C)[nH]n3)c2)ncn1
microsomal CLint at 1 µM [1]: 52.3 µL/min/mg

CNCc1cc(Oc2ccc3c(ccn3C(=O)Nc3cccc(C(F)(F)F)c3)c2)ncn1
microsomal CLint at 1 µM [1]: 43 µL/min/mg

O=C(Nc1cc(C2CC2)on1)n1ccc2cc(Oc3cc(CO)ncn3)ccc21
inhibition [2]: inactive

CC(=O)N1Cc2ncnc(Oc3ccc4c(ccn4C(=O)Nc4cc(C5CC5)on4)c3)c2C[C@@H]1C
IC50 [3]: < 500 nM | Activity [4]: Non-Toxic | Activity [5]: Non-Toxic | Cmax [6]: 2860 nM | Cmax [7]: 78.6 nM | IC50 [8]: < 500 nM | AUC(0-t) [9]: 8.97 µM·h | Tmax [10]: 11 h | Activity [11]: Non-Toxic | concentration at 24 h [12]: 64 nM | inhibition (INH) [13]: 50% | AUC(0-t) [14]: 0.449 µM·h | AUC(0-t) [15]: 0.764 µM·h | Cmax [16]: 150 nM | AUC(0-t) [17]: 0.923 µM·h | Cmax [18]: 228 nM | Cmax [19]: 4730 nM | inhibition (INH) [20]: 55% | Cmax [21]: 138 nM | Tmax [22]: 3 h | solubility [23]: 0.6 µM (≈ 0.284 µg/mL) | AUC(0-t) [24]: 0.22 µM·h | Cmax [25]: 51.6 nM | Cmax [26]: 65.8 nM | AUC(0-t) [27]: 1.07 µM·h | IC50 [28]: < 500 nM | AUC(0-t) [29]: 29.5 µM·h | AUC(0-t) [30]: 2.51 µM·h | IC50 [31]: < 500 nM | concentration [32]: 84.4 nM | IC50 [33]: < 500 nM

O=C(Nc1cc(C2(CO)CC2)on1)n1ccc2cc(Oc3ncnc4c3CNC4)ccc21
inhibition [2]: inactive

CC(C)(CO)c1cc(NC(=O)n2ccc3cc(Oc4ncnc5c4CNC5)ccc32)no1
inhibition [2]: inactive

CNCc1cc(Oc2ccc3c(ccn3C(=O)Nc3cc(C(F)(F)F)n(C)n3)c2)ncn1
Cmax [6]: 5690 nM | Cmax [7]: 32.1 nM | AUC(0-t) [9]: 52 µM·h | Tmax [34]: 0.67 h | ED50 [35]: 0.5% | ED90 [35]: 1.2% | AUC(0-t) [14]: 0.0343 µM·h | AUC(0-t) [15]: 14.3 µM·h | Cmax [36]: 5.38 nM | AUC(0-t) at 6 h [37]: 0.0644 µM·h | ED50 [38]: 1% | ED90 [38]: 2.6% | Cmax [16]: 683 nM | Tmax [39]: 1.67 h | AUC(0-t) [17]: 0.0244 µM·h | microsomal CLint at 1 µM [1]: 156 µL/min/mg | inhibition (INH) [40]: 94% | Cmax [19]: 31800 nM | half-life [41]: 1.61 h | Cmax [21]: 1910 nM | ED50 [42]: 1.4% | half-life [43]: 4.38 h | Cmax [44]: 26.9 nM | AUC(0-t) [24]: 4.63 µM·h | Cmax [25]: 36.6 nM | AUC(0-t) at 6 h [45]: 0.0227 µM·h | AUC(0-t) [29]: 515 µM·h
